The values that follow are results of earlier work, collected in patent US8329142B2, “Compounds, compositions and methods for medical imaging of Parkinson's disease” (priority 2003, dated 2012).

Data set [1] deals with T1, Aβ(1-40) (Homo sapiens, UniProt P05067). The settings on record: in vitro.
In data set [2] the target is T1, Aβ(1-40).
A further data set deals with Aβ(1-28) (Homo sapiens, UniProt P05067). The note with it: computer-based molecular modeling.
The conditions of data set [3]: intra-venous (IV) and oral administration.

Structures are written as SMILES.

T1 sequence (P05067 672-711 limits assumed): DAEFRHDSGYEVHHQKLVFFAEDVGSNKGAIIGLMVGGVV
Sequence of Aβ(1-28) (P05067 672-699): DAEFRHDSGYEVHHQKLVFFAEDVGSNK

On to `[12CH3][14N+]([12CH3])([12CH3])CC[16O][31P](=[16O])([16OH])[16O]CC([16OH])C[16OH]` (stereo not shown) [GPC, glycerophosphocholine], for which the “enhancement of Aβ(1-40) aggregation” value on Aβ(1-40) [1] was “over 400%”. Moreover, the “reduction of α-helical content of Aβ(1-40)” value at Aβ(1-40) [2] was 15%. Moreover, the “binding to Aβ(1-28) peptide site (pocket Lys28, Asp23, Lys16)” value at Aβ(1-28) is “bind specifically”. Moreover, the brain penetration entry in data set [3] is “enters the brain”.
